# In patent US20120095024A1, “TOLUIDINE SULFONAMIDES AND THEIR USE” (Elara Pharmaceuticals GmbH, priority 2008, published 2012):
# Tested on: MCF7 cells
# Test: Cell proliferation assay (ATPlite), MCF-7
# Assay type: cell-based, human
# Conditions: Homo sapiens, inhibition of cell proliferation, 72 h
# Description: MCF-7 human breast adenocarcinoma cells and HL-60 acute promyelocytic leukaemia cells were obtained from ATCC (LGC Promochem). HG-1 multiple myeloma cells were obtained from Dr. D. Hose (DKFZ Heidelberg). The CellSensor® HRE-bla HCT116 cell line (colorectal carcinoma) was obtained from Invitrogen.
# Cells were grown under humidified 95% air, 5% CO2 at 37° C. in Dulbecco's modified Eagle's medium (DMEM: MCF-7) or RPMI 1640 medium (RPMI: HL-60, HG-1) supplemented with 10% fetal bovine serum (FBS), 100 U/ml penicillin and 100 μg/ml streptomycin, 2 mM L-glutamine, and 2 ng/ml IL-6 (for the HG-1 cell line only). The HCT116 cell line was grown under the same atmospheric conditions in McCoy's 5A medium supplemented with 10% FBS and penicillin/streptomycin as above, in addition to blasticidin as a selection marker at a final concentration of 5 μg/ml.
# Cell proliferation experiments were carried out in 96-well tissue culture plates with seeding of 2000 cells/well (MCF-7) or 1000 cells/well (HL-60, HG-1) in 100 μl of the relevant medium. Cells were subsequently incubated under the conditions mentioned for 24 h prior to addition of compounds.
# For the determination of compound EC50 values, 10 μl compounds at 11× concentrations in 5.5% DMSO were added to the wells at various concentrations yielding a final constant percentage of 0.5% DMSO at the desired 1× compound concentration. As a positive control, cells were treated with 5.5% DMSO. The cells were then incubated for a further 72 h prior to the measurement.
# To determine the degree of inhibition of cell proliferation, cells were treated with ATPlite solution according to the manufacturer's instructions (PerkinElmer, ATPlite 1-step Luminescence ATP Detection Assay System) and luciferase readout measured on an Envision HTS multilabel plate reader (PerkinElmer) in luminescence mode according to established protocols. Raw data were imported into an ActivityBase database (IDBS, ID Business Solutions) and EC50 values calculated using the IDBS program ActivityBase XE. Table 2A and 2B show the IC50 values obtained in the above-outlined cell proliferation assay for exemplary compounds of the invention.
row,SMILES,EC50 [nM]
1,"Cc1ccc(S(=O)(=O)Nc2cc(-c3nnn[nH]3)ccc2C)cc1 [Example 1, 4-Methyl-N-[2-methyl-5-(1H-tetrazol-5-yl)-phenyl]-benzenesulfonamide]",1000 to 10000
2,"Cc1ccc(S(=O)(=O)Nc2cc(-n3cnnn3)ccc2C)cc1 [Example 2, 4-Methyl-N-(2-methyl-5-tetrazol-1-yl-phenyl)-benzenesulfonamide]",1000 to 10000
3,"Cc1ccc(S(=O)(=O)Nc2cc(-c3nnn(C)n3)ccc2C)cc1 [Example 6, 4-Methyl-N-[2-methyl-5-(2-methyl-2H-tetrazol-5-yl)-phenyl]-benzenesulfonamide]",1000 to 10000
4,"Cc1ccc(S(=O)(=O)Nc2cc(-c3cccc(C)c3)ccc2C)cc1 [Example 7, N-(4,3′-Dimethyl-biphenyl-3-yl)-4-methyl-benzenesulfonamide]",500 to 1000
5,"COc1cccc(-c2ccc(C)c(NS(=O)(=O)c3ccc(C)cc3)c2)n1 [Example 9, N-[5-(6-Methoxy-pyridin-2-yl)-2-methyl-phenyl]-4-methyl-benzenesulfonamide]",500 to 1000
6,"Cc1ccc(-c2ccc(C)c(NS(=O)(=O)c3ccc(C)cc3)c2)cc1 [Example 10, N-(4,4′-Dimethyl-biphenyl-3-yl)-4-methyl-benzenesulfonamide]",1000 to 10000
7,"Cc1ccc(S(=O)(=O)Nc2cc(-c3sc(C)nc3C)ccc2C)cc1 [Example 12, N-[5-(2,4-Dimethyl-thiazol-5-yl)-2-methyl-phenyl]-4-methyl-benzenesulfonamide]",< 500
8,"COc1ccc(S(=O)(=O)Nc2cc(-c3cc(C)sc3C)ccc2C)cc1 [Example 13, N-[5-(2,5-Dimethyl-thiophen-3-yl)-2-methyl-phenyl]-4-methoxy-benzenesulfonamide]",1000 to 10000
9,"COc1ccc(S(=O)(=O)Nc2cc(-c3ccsc3)ccc2C)cc1 [Example 14, 4-Methoxy-N-(2-methyl-5-thiophen-3-yl-phenyl)-benzenesulfonamide]",< 500
10,"COc1ccc(S(=O)(=O)Nc2cc(-c3ccsc3C)ccc2C)cc1 [Example 17, 4-Methoxy-N-[2-methyl-5-(2-methyl-thiophen-3-yl)-phenyl]-benzenesulfonamide]",< 500
11,"COc1ccc(-c2ccc(C)c(NS(=O)(=O)c3ccc(C)cc3)c2)cn1 [Example 18, N-[5-(6-Methoxy-pyridin-3-yl)-2-methyl-phenyl]-4-methyl-benzenesulfonamide]",1000 to 10000
12,"COc1ccc(S(=O)(=O)Nc2cc(-c3cnco3)ccc2C)cc1 [Example 20, 4-Methoxy-N-(2-methyl-5-oxazol-5-yl-phenyl)-benzenesulfonamide]",< 500
13,"COc1ccc(S(=O)(=O)Nc2cc(-n3cccc3)ccc2C)cc1 [Example 21, 4-Methoxy-N-(2-methyl-5-pyrrol-1-yl-phenyl)-benzenesulfonamide]",< 500
14,"Cc1ccc(S(=O)(=O)Nc2cc(-c3sccc3C)ccc2C)cc1 [Example 24, 4-Methyl-N-[2-methyl-5-(3-methyl-thiophen-2-yl)-phenyl]-benzenesulfonamide]",< 500
15,"Cc1ccc(S(=O)(=O)Nc2cc(-c3ccoc3C)ccc2C)cc1 [Example 25, 4-Methyl-N-[2-methyl-5-(2-methyl-furan-3-yl)-phenyl]-benzenesulfonamide]",< 500
16,"COc1cccnc1-c1ccc(C)c(NS(=O)(=O)c2ccc(C)cc2)c1 [Example 26, N-[5-(3-Methoxy-pyridin-2-yl)-2-methyl-phenyl]-4-methyl-benzenesulfonamide]",1000 to 10000
17,"Cc1ccc(S(=O)(=O)Nc2cc(-c3ncccc3C(F)(F)F)ccc2C)cc1 [Example 27, 4-Methyl-N-[2-methyl-5-(3-trifluoromethyl-pyridin-2-yl)-phenyl]-benzenesulfonamide]",1000 to 10000
18,"Cc1ccc(S(=O)(=O)Nc2cc(-c3ncccc3C)ccc2C)cc1 [Example 28, 4-Methyl-N-[2-methyl-5-(3-methyl-pyridin-2-yl)-phenyl]-benzenesulfonamide]",1000 to 10000
19,"Cc1ccc(S(=O)(=O)Nc2cc(-n3c(C)ccc3C)ccc2C)cc1 [Example 29, N-[5-(2,5-Dimethyl-pyrrol-1-yl)-2-methyl-phenyl]-4-methyl-benzenesulfonamide]",1000 to 10000
20,"COc1ccc(S(=O)(=O)Nc2cc(-n3ccc(C)n3)ccc2C)cc1 [Example 30, 4-Methoxy-N-[2-methyl-5-(3-methyl-pyrazol-1-yl)-phenyl]-benzenesulfonamide]",< 500

row,SMILES,EC50 [nM]
1,"Cc1ccc(S(=O)(=O)Nc2cc(-c3cc(C)ccn3)ccc2C)cc1 [Example 31, 4-Methyl-N-[2-methyl-5-(4-methyl-pyridin-2-yl)-phenyl]-benzenesulfonamide]",1000 to 10000
2,"Cc1ccc(S(=O)(=O)Nc2cc(-c3ccc(C)cn3)ccc2C)cc1 [Example 32, 4-Methyl-N-[2-methyl-5-(5-methyl-pyridin-2-yl)-phenyl]-benzenesulfonamide]",1000 to 10000
3,"Cc1ccc(S(=O)(=O)Nc2cc(-c3cccc(C)n3)ccc2C)cc1 [Example 33, 4-Methyl-N-[2-methyl-5-(6-methyl-pyridin-2-yl)-phenyl]-benzenesulfonamide]",500 to 1000
4,"Cc1ccc(S(=O)(=O)Nc2cc(-c3cncc(C#N)c3)ccc2C)cc1 [Example 34, N-[5-(5-Cyano-pyridin-3-yl)-2-methyl-phenyl]-4-methyl-benzenesulfonamide]",< 500
5,"COc1cncc(-c2ccc(C)c(NS(=O)(=O)c3ccc(C)cc3)c2)c1 [Example 35, N-[5-(5-Methoxy-pyridin-3-yl)-2-methyl-phenyl]-4-methyl-benzenesulfonamide]",1000 to 10000
6,"COc1cc(C)c(-c2ccc(C)c(NS(=O)(=O)c3ccc(C)cc3)c2)cn1 [Example 36, N-[5-(6-Methoxy-4-methyl-pyridin-3-yl)-2-methyl-phenyl]-4-methyl-benzenesulfonamide]",1000 to 10000
7,"CCOc1ccc(-c2ccc(C)c(NS(=O)(=O)c3ccc(C)cc3)c2)cn1 [Example 37, N-[5-(6-Ethoxy-pyridin-3-yl)-2-methyl-phenyl]-4-methyl-benzenesulfonamide]",1000 to 10000
8,"Cc1ccc(S(=O)(=O)Nc2cc(-c3cc(C(F)(F)F)ccn3)ccc2C)cc1 [Example 38, 4-Methyl-N-[2-methyl-5-(4-trifluoromethyl-pyridin-2-yl)-phenyl]-benzenesulfonamide]",1000 to 10000
9,"Cc1ccc(S(=O)(=O)Nc2cc(-c3cccc(C(F)(F)F)n3)ccc2C)cc1 [Example 39, 4-Methyl-N-[2-methyl-5-(6-trifluoromethyl-pyridin-2-yl)-phenyl]-benzenesulfonamide]",500 to 1000
10,"COc1ccc(S(=O)(=O)Nc2cc(-n3cc(C)cc3C)ccc2C)cc1 [Example 40, N-[5-(2,4-Dimethyl-pyrrol-1-yl)-2-methyl-phenyl]-4-methoxy-benzenesulfonamide]",1000 to 10000
11,"COc1ccc(S(=O)(=O)Nc2cc(-n3cccc3C#N)ccc2C)cc1 [Example 41, N-[5-(2-Cyano-pyrrol-1-yl)-2-methyl-phenyl]-4-methoxy-benzenesulfonamide]",500 to 1000
12,"CC(=O)c1cccc(-c2ccc(C)c(NS(=O)(=O)c3ccc(C)cc3)c2)n1 [Example 42, N-[5-(6-Acetyl-pyridin-2-yl)-2-methyl-phenyl]-4-methyl-benzenesulfonamide]",500 to 1000
13,"COc1ccc(-c2ccc(C)c(NS(=O)(=O)c3ccc(C)cc3)c2)nc1 [Example 44, N-[5-(5-Methoxy-pyridin-2-yl)-2-methyl-phenyl]-4-methyl-benzenesulfonamide]",< 500
14,"Cc1ccc(S(=O)(=O)Nc2cc(-c3ccc(C(F)(F)F)cn3)ccc2C)cc1 [Example 45, 4-Methyl-N-[2-methyl-5-(5-trifluoromethyl-pyridin-2-yl)-phenyl]-benzenesulfonamide]",1000 to 10000
15,"Cc1ccc(S(=O)(=O)Nc2cc(-c3ccc(F)c(C)n3)ccc2C)cc1 [Example 46, N-[5-(5-Fluoro-6-methyl-pyridin-2-yl)-2-methyl-phenyl]-4-methyl-benzenesulfonamide]",500 to 1000
16,"Cc1ccc(S(=O)(=O)Nc2cc(-c3c(C)noc3C)ccc2C)cc1 [Example 48, N-[5-(3,5-Dimethyl-isoxazol-4-yl)-2-methyl-phenyl]-4-methyl-benzenesulfonamide]",< 500
17,"COc1ccc(S(=O)(=O)Nc2cc(-n3cccc3C)ccc2C)cc1 [Example 50, 4-Methoxy-N-[2-methyl-5-(2-methyl-pyrrol-1-yl)-phenyl]-benzenesulfonamide]",< 500
18,"Cc1ccc(S(=O)(=O)Nc2cc(-c3cccc(C#N)n3)ccc2C)cc1 [Example 52, N-[5-(6-Cyano-pyridin-2-yl)-2-methyl-phenyl]-4-methyl-benzenesulfonamide]",500 to 1000
19,"Cc1ccc(S(=O)(=O)Nc2cc(-c3ccc(F)cn3)ccc2C)cc1 [Example 53, N-[5-(5-Fluoro-pyridin-2-yl)-2-methyl-phenyl]-4-methyl-benzenesulfonamide]",< 500
